Consider 13 compounds from US9771337B2, “Neprilysin inhibitors” (THERAVANCE BIOPHARMA R&D IP, LLC, priority 2011, dated 2017).

T1 sequence (P08473 whole entry): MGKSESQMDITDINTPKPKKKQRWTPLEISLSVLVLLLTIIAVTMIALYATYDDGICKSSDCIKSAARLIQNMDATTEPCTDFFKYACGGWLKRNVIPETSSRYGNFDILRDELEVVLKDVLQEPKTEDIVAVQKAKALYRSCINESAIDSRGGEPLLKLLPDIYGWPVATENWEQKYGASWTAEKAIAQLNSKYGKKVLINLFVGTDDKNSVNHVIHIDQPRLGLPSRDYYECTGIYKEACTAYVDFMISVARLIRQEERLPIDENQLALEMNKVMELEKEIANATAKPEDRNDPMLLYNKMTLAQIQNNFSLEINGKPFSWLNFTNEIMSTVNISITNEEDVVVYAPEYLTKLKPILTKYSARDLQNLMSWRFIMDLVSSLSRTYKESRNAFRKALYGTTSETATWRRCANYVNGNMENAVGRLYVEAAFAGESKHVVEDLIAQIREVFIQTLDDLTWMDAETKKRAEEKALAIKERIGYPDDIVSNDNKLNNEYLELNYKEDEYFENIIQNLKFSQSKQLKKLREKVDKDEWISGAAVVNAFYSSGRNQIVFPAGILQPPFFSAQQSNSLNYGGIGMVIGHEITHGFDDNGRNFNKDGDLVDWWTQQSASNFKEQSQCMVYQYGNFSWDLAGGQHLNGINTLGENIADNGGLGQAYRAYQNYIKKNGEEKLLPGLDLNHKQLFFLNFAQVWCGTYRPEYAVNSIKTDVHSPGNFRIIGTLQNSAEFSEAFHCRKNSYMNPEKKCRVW

The test has as its target T1, human NEP (Homo sapiens, UniProt P08473).
T1 construct: purchased R&D Systems, Minneapolis, Minn; 1182-ZN
The test can be described thus: In vitro enzyme inhibition assay, inhibitor potency at human NEP. It is filed as biochemical. The conditions noted are these: pKi values at human NEP; recombinant human NEP, fluorogenic peptide substrate 10 μM, 37° C. The method, then: The inhibitory activities of compounds at human and rat neprilysin (EC 3.4.24.11; NEP) and human angiotensin converting enzyme (ACE) were determined using in vitro assays as described below.
Recombinant human NEP and recombinant human ACE were obtained commercially (R&D Systems, Minneapolis, Minn., catalog numbers 1182-ZN and 929-ZN, respectively). The fluorogenic peptide substrate Mca-D-Arg-Arg-Leu-Dap-(Dnp)-OH (Medeiros et al. (1997) Braz. J. Med. Biol. Res. 30:1157-62; Anaspec, San Jose, Calif.) and Abz-Phe-Arg-Lys(Dnp)-Pro-OH (Araujo et al. (2000) Biochemistry 39:8519-8525; Bachem, Torrance, Calif.) were used in the NEP and ACE assays respectively.
The assays were performed in 384-well white opaque plates at 37° C. using the fluorogenic peptide substrates at a concentration of 10 μM in Assay Buffer (NEP: 50 mM HEPES, pH 7.5, 100 mM NaCl, 0.01% polyethylene glycol sorbitan monolaurate (Tween-20), 10 μM ZnSO4; ACE: 50 mM HEPES, pH 7.5, 100 mM NaCl, 0.01% Tween-20, 1 μM ZnSO4).
Test compounds were assayed over the range of concentrations from […] to 20 μM. Test compounds were added to the enzymes and incubated for 30 minute at 37° C. prior to initiating the reaction by the addition of substrate. Reactions were terminated after 20 minutes of incubation at 37° C. by the addition of glacial acetic acid to a final concentration of 3.6% (v/v).
Plates were read on a fluorometer with excitation and emission wavelengths set to 320 nm and 405 nm, respectively. Inhibition constants were obtained by nonlinear regression of the data using the equation (GraphPad Software, Inc., San Diego, Calif.): v=v0/[1+(I/K′)] where v is the reaction rate, v0 is the uninhibited reaction rate, I is the inhibitor concentration and K′ is the apparent inhibition constant.
Compounds of the invention were tested in this assay and found to have pKi values at human NEP as follows.
On to `O=C(N[C@H](Cc1ccccc1Cl)[C@@H](O)C(=O)O)c1cc2n(n1)CCOc1ccccc1-2` [Example 2-26, (2R,3R)-4-(2-Chloro-phenyl)-3-[(4,5-dihydro-6-oxa-3,3a-diaza-benzo[e]azulene-2-carbonyl)-amino]-2-hydroxy-butyric acid], for which the Ki was 1.26 to 10 nM.

Turning to `CCc1nc2c(Cl)cc(C(=O)N[C@H](Cc3ccccc3)[C@@H](O)C(=O)O)cc2[nH]1` [Example 5-9, (2R,3R)-3-[(7-Chloro-2-ethyl-3H-benzoimidazole-5-carbonyl)-amino]-2-hydroxy-4-phenyl-butyric acid], the Ki is 12.6 to 100 nM.

Consider `COc1ccc(Cn2oc(C(=O)N[C@H](Cc3ccccc3Cl)[C@@H](O)C(=O)O)cc2=O)c(F)c1F` [Example 2-17, (2R,3R)-4-(2-Chloro-phenyl)-3-{[2-(2,3-difluoro-4-methoxy-benzyl)-3-oxo-2,3-dihydro-isoxazole-5-carbonyl]-amino}-2-hydroxy-butyric acid], for which the inhibition constant (Ki) was 1.26 to 10 nM.

Turning to `O=C(N[C@H](Cc1ccccc1Cl)[C@@H](O)C(=O)O)c1cnc2nn[nH]c2c1` [Example 2-37, (2R,3R)-4-(2-Chloro-phenyl)-2-hydroxy-3-[(1H-[1,2,3]triazolo[4,5-b]pyridine-6-carbonyl)-amino]-butyric acid], the Ki was 1.26 to 10 nM.

For the compound `O=C(N[C@H](Cc1ccccc1)[C@@H](O)C(=O)O)c1cnc2nn[nH]c2c1` [Example 5-29, (2R,3R)-2-Hydroxy-4-phenyl-3-[(1H-[1,2,3]triazolo[4,5-b]pyridine-6-carbonyl)-amino]-butyric acid], the Ki is 12.6 to 100 nM.

As to `O=C(N[C@H](Cc1ccccc1)[C@@H](O)C(=O)O)c1ccc2nn[nH]c2c1` [Example 5-11, (2R,3R)-3-[(3H-Benzotriazole-5-carbonyl)-amino]-2-hydroxy-4-phenyl-butyric acid], the Ki is 12.6 to 100 nM.

As for `CCCc1nc2c(C)cc(C(=O)N[C@H](Cc3ccccc3)[C@@H](O)C(=O)O)cc2n1Cc1ccc(Br)nc1` [Example 5-2, (2R,3R)-3-{[3-(6-Bromo-pyridin-3-ylmethyl)-7-methyl-2-propyl-3H-benzoimidazole-5-carbonyl]-amino}-2-hydroxy-4-phenyl-butyric acid], the Ki is 12.6 to 100 nM.

`O=C(N[C@H](Cc1ccccc1Cl)[C@@H](O)C(=O)O)c1cc(O)no1` [Example 2-11, (2R,3R)-4-(2-Chloro-phenyl)-2-hydroxy-3-[(3-hydroxy-isoxazole-5-carbonyl)-amino]-butyric acid]: the Ki is 1.26 to 10 nM.

As to `O=C(N[C@H](Cc1ccccc1)[C@@H](O)C(=O)O)c1cc(-c2ccccc2C(=O)O)ccn1` [Example 5-26, 2-[2-((1R,2R)-1-Benzyl-2-carboxy-2-hydroxy-ethylcarbamoyl)-pyridin-4-yl]-benzoic acid], the Ki was 1.26 to 10 nM.

As for `CCCc1nc2c(C)cc(C(=O)N[C@H](Cc3ccccc3)[C@@H](O)C(=O)O)cc2n1CC(=O)O` [Example 5-5, (2R,3R)-3-[(3-Carboxymethyl-7-methyl-2-propyl-3H-benzoimidazole-5-carbonyl)-amino]-2-hydroxy-4-phenyl-butyric acid], the Ki was 12.6 to 100 nM.

With `CCCc1nc2c(C)cc(C(=O)N[C@H](Cc3ccccc3)[C@@H](O)C(=O)O)cc2n1Cc1ccccc1OC` [Example 5-6, (2R,3R)-2-Hydroxy-3-{[3-(2-methoxy-benzyl)-7-methyl-2-propyl-3H-benzoimidazole-5-carbonyl]-amino}-4-phenyl-butyric acid], the Ki is 12.6 to 100 nM.

With `Cc1cc(C(=O)N[C@H](Cc2ccccc2Cl)[C@H](O)C(=O)O)cc2[nH]nnc12` [Example 2-30, (2S,3R)-4-(2-Chloro-phenyl)-2-hydroxy-3-[(7-methyl-3H-benzotriazole-5-carbonyl)-amino]-butyric acid], the Ki is 12.6 to 100 nM.

As to `O=C(N[C@H](Cc1ccccc1Cl)[C@@H](O)C(=O)O)c1ccc(-c2ccccc2C(=O)O)nc1` [Example 2-8, 2-{5-[(1R,2R)-2-Carboxy-1-(2-chloro-benzyl)-2-hydroxy-ethylcarbamoyl]-pyridin-2-yl}-benzoic acid], the Ki was 1.26 to 10 nM.
